Laboratory results taken from US8642660B2, “Method for altering the lifespan of eukaryotic organisms” (The University of Rochester, priority 2007, dated 2014).

How the values were obtained:
yeast cells [1] = test: "775" DeaD assay, single-concentration screen for countering nicotinamide lifespan shortening; type: cell-based, Saccharomyces cerevisiae; design: key: compounds that exhibited >26% inhibition are defined as active; Compounds that exhibited <=26% inhibition are defined as inactive; conditions: compounds 10 uM, 1.5 mM nicotinamide, 48 hours, OD615
Text: Having established the suitability of the DeaD assay as a proxy for microdissection, the DeaD assay was used to screen a 132,796 compound library for the ability of compounds in the library to counter the lifespan-shortening effect of nicotinamide.
Specifically, as described in the AID 775 assay results (synonymously, the “775” assay results) on the “PubChem” website at pubchem.ncbi.nlm.nih.gov/assay/assay.cgi?aid=775, the contents of which are herein incorporated in their entirety by reference, the percent inhibition of nicotinamide lifespan shortening, i.e. percent reversal of nicotinamide effect on lifespan, was calculated using the optical density in control wells with cells treated with 1.5 mM nicotinamide as full lifespan shortening effect of nicotinamide (0% inhibition of nicotinamide), and wells with cells grown in medium without nicotinamide as an indicator of 100% inhibition. The appropriate compounds in the PubChem compound library (about 132,000 compounds selected from the total library of about 10 million compounds) were screened at 10 uM in the presence of 1.5 mM nicotinamide. For further details, see, e.g., the following references: Jarolim, S., Millen, J., Heeren, G., Laun, P., Goldfarb, D. S. and M. Breitenbach. (2004). A novel assay for replicative lifespan in Saccharomyces cerevisiae. FEMS Yeast Res. 5, 169-177; Bitterman, K. J., Anderson, R. M., Cohen, H. Y., Latorre-Esteves, M., and D. A. Sinclair. (2002). Inhibition of silencing and accelerated aging by nicotinamide, a putative negative regulator of yeast Sir2 and human SIRT1. J. Biol. Chem. 277, 45099-45107; Tsuchiya, M., Dang, N., Kerr, E. O., Hu, D., Steffen, K. K., Oakes, J. A., Kennedy, B. K. and M. Kaeberlein (2006) Sirtuin-independent effects of nicotinamide on lifespan extension from calorie restriction in yeast. Aging Cell. 5, 505-514.
Assays were conducted as follow. Cells were streaked out on a YPGal agar plate and grown for 48 hours at 30° C. Four colonies were selected, 50 mL of YPGal medium in a flask was inoculated and grown at 30° C. with shaking O/N. OD600 was measured. The OD should be <0.7 for the cells to be in log phase. The cells were centrifuged, washed once and resuspended in CSMM-D restrictive growth medium. OD600 was measured again. The culture was diluted to an OD600 of 0.002 in CSMM-D restrictive medium. The culture was pre-incubated in a flask with shaking at 30° C. for 4 hours. At the end of the pre-incubation, OD600 was measured for reference. Nicotinamide (negative control), medium alone (positive control) and compounds in the presence of nicotinamide were plated with DMSO at 10× concentration (final concentrations: nicotinamide 1.5 mM, compounds 10 uM, DMSO 0.25%) in 384-well plates: 5 uL/well. The yeast was added to the plates: 45 uL/well. Plates were incubated at 30 C in a humidified chamber. After 48 hours incubation, plates were shaken for 30 seconds and OD615 was read in an EnVision (PerkinElmer) multilabel plate reader. For these assays, YPGal medium was prepared as 10 grams yeast extract, 20 grams peptone, 900 mL water, autoclave at 121° C. for 15 minutes, add 100 mL sterile 20% (w/v) galactose. CSMM-D (Complete Synthetic Minimal Medium-Dextrose) (restrictive) medium was prepared as 6.7 grams yeast nitrogen base without amino acids, 2.0 grams Drop-out mix complete (DOC) (USBiological Cat. no. D9515), 100 mL 20% (w/v) dextrose, water to 1.0 L, then filter sterilize.
An activity threshold of >26% was calculated as greater than three standard deviations from the median compound inhibition. […] Because of the inherent error in all high-throughput screens including the fallacy of over-interpreting single dose data, a tiered scoring system was adopted for this Example, in which compounds were scored on a scale of 0-40 based on activity, with a scaled activity threshold of 11. Using this tiered scoring system, the compounds were ranked, with 906 of these compounds defined as “active” using this tiered scoring system. […]

yeast cells [2] = test: Standard microdissection replicative lifespan assay (FIG. 4); type: cell-based, Saccharomyces cerevisiae
Experimental: FIG. 4 provides standard microdissection lifespans for nicotinamide in the presence of nalidixic acid and 5 mM nicotinamide. Three experiments that included three concentrations of nalidixic acid all increased mean lifespans (shown in parentheses) and maximum lifespans. In this Figure, “#864” refers to nalidixic acid, e.g., the second entry in the legend refers to 54 uM nalidixic acid, the third entry refers to 107 uM nalidixic acid, etc. The number presented in parentheses in the figure legend refers to the mean lifespan of the population in each experiment presented in this Figure, e.g., the control population (5 mM nicotinamide only) has a mean lifespan of 14.2 generations, etc.
In order to verify the data of Example 4 for nalidixic acid, microdissection experiments were performed using this compound to counter the effect of nicotinamide, with the results of these experiments shown in FIG. 4.

C. elegans = conditions: Pnc1 and SIR2-ortholog dependent; Van der Horst et al. 2007; cited from earlier work
DeaD strain = test: DeaD assay validation with nicotinamide (FIG. 2); type: cell-based, Saccharomyces cerevisiae; conditions: 0.5, 0.75, 1 mM NIC
Experimental: Panel A: Under growth in glucose (nonpermissive conditions) DeaD lifespans are reduced in a dose-dependent fashion by increasing concentrations of nicotinamide. […] The lines shown in panel A correspond to (top to bottom) 0, 0.5, 0.75, and 1 mM NIC. The 3 lines visible in panel B correspond to (topmost to bottommost), 0.5, 0.75, or 1 mM NIC; the 0 mM NIC line is not visible.
The DeaD assay was developed as a high throughput proxy for conventional microdissection assays used to determine yeast replicative ageing. In order to verify the ability of this assay to produce results corresponding to conventional microdissection assay results, the data of FIG. 1 were obtained using either the DeaD assay (panel A) or via microdissection (panel B).

DeaD strain BB579 = test: "809" DeaD assay, dose-response screen (EC50) in presence of nicotinamide; type: cell-based, Saccharomyces cerevisiae; design: key: An activity threshold of EC50<=10 uM was set and compounds that met this criterion are defined as active; Compounds that exhibited an EC50>10 uM are defined as inactive; conditions: compounds 0.078-10 uM, 1.5 mM nicotinamide, 48 hours
Experimental: As already discussed, Example 2 provides data using the “775” DeaD assay to determine compounds that counter the lifespan-reducing effects of 1.5 mM nicotinamide, with this Example identifying about 900 “active” compounds. Example 2 used only a single compound concentration of 10 uM; in the current Example, the top 500 of these “active” compounds were again screened using the DeaD assay, but now at 8 concentrations ranging from 0.078 to 10 uM, again in the presence of 1.5 mM nicotinamide, resulting in the data provided in Table 1. This more extensive data allowed for the determination of the half maximal effective concentration (EC50). See the “AID 809” assay (the “809” assay) results on the PubChem website at pubchem.ncbi.nlm.nih.gov/assay/assay.cgi?aid=809.
Thus, in this Example compounds were screened in an 8-point 2-fold dilution series ranging from 0.078 to 10 uM in the presence of 1.5 mM nicotinamide. The percent activation of lifespan, i.e. percent reversal of nicotinamide effect on lifespan, was calculated using the optical density in control wells with cells treated with 1.5 mM nicotinamide as full lifespan shortening effect of nicotinamide (0% activation), and wells with cells grown in medium without nicotinamide as an indicator of 100% activation. From the % activation values of the different compound concentrations, the half maximal effective concentration (EC50) was calculated using IDBS ActivityBase software and XLfit equation 205 for a four parameter logistic fit; the maximum and minimum values were fixed at 100% and 0%.
Assays were conducted as follow. Cells (DeaD strain BB579) were streaked out on a YPGal agar plate and grown for 48 hours at 30° C. Four colonies were selected, 50 mL of YPGal medium in a flask was inoculated and grown at 30 C with shaking O/N. OD600 was measured. The OD should be <0.7 for the cells to be in log phase. […] OD600 was measured again. […] At the end of the pre-incubation, OD600 was measured for reference. […] After 48 hours incubation, plates were shaken for 30 seconds and OD615 was read in an EnVision (PerkinElmer) multilabel plate reader. […]

yeast cells [3] = test: Full DeaD assay lifespan timecourse (FIG. 3); type: cell-based, Saccharomyces cerevisiae; conditions: 2.5, 5.0, 10 uM, nonpermissive conditions
Experimental: FIG. 3 provides a plot showing DeaD assays for compound SID 855620 (nalidixic acid) in the presence and absence of nicotinamide. The nalidixic acid was incubated with growing cells under nonpermissive conditions at concentrations of 2.5, 5.0, and 10 uM (micromolar) in the presence and absence of 1.5 mM nicotinamide. Control experiments for growth in the presence and absence of nicotinamide without the drug are included. The last three entries showing the line labeling are all results obtained with 1.5 mM nicotinamide and, respectively, 2.5, 5 or 10 uM nalidixic acid. The data lines shown in this figure correspond to (topmost to bottommost as they appear at the extreme right side of the data lines): 2.5, 10, or 5 uM nalidixic acid (no nicotinamide); blank cells (labeled “no NIC”); 5 or 10 uM nalidixic acid plus 1.5 mM nicotinamide (in both cases); 10 uM nalidixic acid (no nicotinamide); and, blank cells with 1.5 mM nicotinamide (labeled “1.5 mM NIC”).
In order to validate the results of the “809” experiment of Example 3, timecourses for the effect of the top 70 compounds identified in Example 3 may be performed using the DeaD assay for, e.g., a 140 hour interval for each of these compounds. […]

[4] = 5 mM nicotinamide, three concentrations of nalidixic acid

Structure (SMILES)	activity in the 775 assay (percent inhibition of nicotinamide lifespan shortening) (yeast cells [1])	activity in the 809 assay (EC50) (DeaD strain BB579)	further results
CCCC(=O)C1C(=O)CC(C)(C)C(c2cc(C)no2)C1=O (stereo not shown) [SID 7972147]	active	–	–
COC(=O)CCCCC(=O)C1C(=O)CC(C)(C)C(C(=O)OC)C1=O (stereo not shown) [SID 7972920]	inactive	–	–
NC(=O)c1cccnc1 [nicotinamide]	–	–	mean lifespan (yeast cells [2]; control population, 5 mM nicotinamide only): 14.2 generations; C. elegans lifespan (C. elegans): reduce C. elegans lifespan; growth under permissive conditions (DeaD strain; growth in galactose (permissive conditions)): without altering growth; DeaD lifespan (DeaD strain; growth in glucose (nonpermissive conditions)): reduces the lifespan of the DeaD strain in a dose-dependent fashion
CCCC(=O)C1C(=O)CC(CC(C)SCC)CC1=O (stereo not shown) [SID 14732512]	active	active	–
CCOC(=O)C1C(=O)C(C(C)=O)C(=O)CC1CC(C)SCC (stereo not shown) [SID 14724551]	active	active	–
CCn1cc(C(=O)O)c(=O)c2ccc(C)nc21 [nalidixic acid]	–	–	maximum lifespan (yeast cells [2]; [4]): increased; mean lifespan (yeast cells [2]; [4]): increased; DeaD lifespan (yeast cells [3]; in the absence of nicotinamide): extends DeaD lifespan; DeaD lifespan (yeast cells [3]; in the presence of 1.5 mM nicotinamide): extends DeaD lifespan
Cc1cc(C2C(=O)C(C(=O)c3ccc(Cl)cc3)C(=O)CC2(C)C)on1 (stereo not shown) [SID 842694]	inactive	–	–
CCOc1ccc(CC(=O)C2C(=O)CC(C)(C)CC2=O)cc1OCC [SID 14732962]	inactive	–	–
CC1(C)CC(=O)C(C(=O)CCCCC(=O)C2C(=O)CC(C)(C)CC2=O)C(=O)C1 [SID 4245034]	inactive	–	–
CC1(C)CC(=O)C(C(=O)Cc2ccccc2[N+](=O)[O-])C(=O)C1 [SID 17511642]	active	active	–
